According to patent US10344019B2 (priority 2010, dated 2019):
Where two headings read alike, the source gives them in different places.

Columns and labels:
Assay in all cases: microbe, parasite or virus in culture
Assay type in all cases: cell-based
[1] = system: HCV 1a RLuc cells (dicistronic genotype 1a H77 replicon, RLuc reporter); conditions: genotype 1a H77 replicon, RLuc reporter, read-out: 1a
Outline: (§1)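 Replicon cells stably carrying the listed RLuc-encoding dicistronic replicons were seeded and treated with DMSO serial dilutions of compound (10 mM stocks) diluted into culture medium. After 72 h, cells were lysed and Renilla luciferase activity measured. EC50 was derived by non-linear regression.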

[2] = system: HCV 1b RLuc cells (dicistronic genotype 1b Con1 replicon, RLuc reporter)
Outline: as §1

[3] = system: HCV 2a JFH-1 Rluc cells (dicistronic genotype 2a JFH-1 replicon, RLuc reporter); conditions: genotype 2a JFH-1 replicon, RLuc reporter, read-out: 2a JFH
Outline: as §1

[4] = system: HCV 3a RLuc cells (NS5A chimeric genotype 1b Con1 replicon with consensus genotype 3a NS5A gene)
Outline: as §1

[5] = system: HCV 4a Rluc cells (NS5A chimeric genotype 1b Con1 replicon with genotype 4a NS5A gene); conditions: read-out: 4a
Outline: as §1

[6] = Hepatitis C virus, read-out: 1b (nM)
[7] = Hepatitis C virus, read-out: 3a, genotype 3a NS5A chimeric 1b Con1 replicon

| SMILES | EC50 ([1]; Hepatitis C virus) [nM] | EC50 [2, 6] [nM] | EC50 ([3]; Hepatitis C virus) [nM] | EC50 [4, 7] [nM] | EC50 ([5]; Hepatitis C virus) [nM] | EC50 [1] [nM] | EC50 ([2]; read-out: 1b) [nM] | EC50 [3] [nM] | EC50 ([4]; read-out: 3a, genotype 3a NS5A chimeric 1b Con1 replicon) [nM] | EC50 ([5]; genotype 4a NS5A chimeric 1b Con1 replicon) [nM] |
| --- | --- | --- | --- | --- | --- | --- | --- | --- | --- | --- |
| COC(=O)N[C@H](C(=O)N1C[C@@H](C#N)C[C@H]1c1ncc(-c2ccc3cc(-c4ccc(-c5cnc([C@@H]6CCCN6C(=O)[C@H](NC(=O)OC)c6ccccc6)[nH]5)cc4)ccc3c2)[nH]1)C(C)C [Example 116] | 0.001 to 0.999 | 0.008 | 0.001 to 0.999 | 0.001 to 0.99 | 0.001 to 0.99 |  |  |  |  |  |
| COC(=O)NC(C(=O)N1CCC[C@H]1c1ncc(-c2ccc(-c3ccc4cc(-c5cnc([C@@H]6CCCN6C(=O)C(NC(=O)OC)C(C)C)[nH]5)ccc4c3)cc2)[nH]1)C(C)C (some centres unmarked) [Example 136] | 0.001 to 0.999 | 0.005 | 0.001 to 0.999 | 0.001 to 0.99 | 0.001 to 0.99 |  |  |  |  |  |
| COC(=O)N[C@H](C(=O)N1CCC[C@H]1c1nc2c([nH]1)COc1cc(-c3ccc4cc(-c5c[nH]c([C@@H]6CCCN6C(=O)[C@@H](c6ccccc6)N(C)C)n5)ccc4c3)ccc1-2)C(C)C [Example 177] | 0.001 to 0.999 | 0.01 | 0.001 to 0.999 | 0.001 to 0.99 | 0.001 to 0.99 |  |  |  |  |  |
| COC(=O)N[C@H](C(=O)N1CCC[C@H]1c1nc2ccc(-c3ccc4c(c3)CCc3cc(-c5cnc([C@@H]6CCCN6C(=O)C(c6ccccc6)N(C)C)[nH]5)ccc3-4)cc2[nH]1)C(C)C (some centres unmarked) [Example 181] | 0.001 to 0.999 | 0.01 | 0.001 to 0.999 | 0.001 to 0.99 | 0.001 to 0.99 |  |  |  |  |  |
| COC(=O)N[C@H](C(=O)N1CCC[C@H]1c1nc2ccc3cc(-c4ccc5cc(-c6cnc([C@@H]7CCCN7C(=O)[C@@H](NC(=O)OC)C7CCOCC7)[nH]6)ccc5c4)ccc3c2[nH]1)C(C)C [Example 195] | 0.001 to 0.999 | 0.023 | 0.001 to 0.999 | 1 to 4.99 | 0.001 to 0.99 |  |  |  |  |  |
| COC(=O)N[C@H](C(=O)N1CCC[C@H]1c1ncc(-c2ccc3cc(-c4ccc(-c5cnc([C@@H]6CCCN6C(=O)C6(NC(=O)OC)CCc7ccccc76)[nH]5)cc4)ccc3c2)[nH]1)C(C)C (some centres unmarked) [Example 196] | 1 to 44 | 0.036 | 1 to 44 | > 5 | 0.001 to 0.99 |  |  |  |  |  |
| COC(=O)N[C@H](C(=O)N1CCC[C@H]1c1ncc(-c2ccc(-c3ccc(-c4ccc5cc(-c6cnc([C@@H]7CCCN7C(=O)[C@H](NC(=O)OC)c7ccccc7)[nH]6)ccc5c4)cc3)cc2)[nH]1)C(C)C [Example 197] | 1 to 44 | 0.01 | 1 to 44 | 0.001 to 0.99 | 0.001 to 0.99 |  |  |  |  |  |
| COC(=O)NC(C(=O)N1CCC[C@H]1c1ncc(-c2ccc3c(c2)C(F)(F)c2cc(-c4ccc(-c5cnc([C@@H]6CCCN6C(=O)[C@H](NC(=O)OC)c6ccccc6)[nH]5)cc4)ccc2-3)[nH]1)C1CCOCC1 (some centres unmarked) [Example 199] | 1 to 44 | 0.01 | 1 to 44 | 1 to 4.99 | 0.001 to 0.99 |  |  |  |  |  |
| CCN(CC)C(C(=O)N1CCC[C@H]1c1ncc(-c2ccc(-c3ccc4c(c3)C(F)(F)c3cc(-c5cnc([C@@H]6CCCN6C(=O)C(NC(=O)OC)C(C)C)[nH]5)ccc3-4)cc2)[nH]1)c1ccccc1 (some centres unmarked) [Example 200] | 1 to 44 | 0.009 | 1 to 44 | 1 to 4.99 | 0.001 to 0.99 |  |  |  |  |  |
| COC(=O)N[C@H](C(=O)N1CCC[C@H]1c1ncc(-c2ccc(-c3ccc4c(c3)C(F)(F)c3cc(-c5cnc([C@@H]6CCCN6C(=O)[C@@H](NC(=O)OC)C(C)(C)C)[nH]5)ccc3-4)cc2)[nH]1)C1CCOCC1 [Example 201] | 0.001 to 0.999 | 0.018 | 1 to 44 | > 5 | 0.001 to 0.99 |  |  |  |  |  |
| COC(=O)NC(C(=O)N1CCC[C@H]1c1ncc(-c2ccc3c(c2)C(F)(F)c2cc(-c4ccc(-c5cnc([C@@H]6CCCN6C(=O)[C@@H](NC(=O)OC)C6CCOCC6)[nH]5)cc4)ccc2-3)[nH]1)C1CCOCC1 (some centres unmarked) [Example 202] | 0.001 to 0.999 | 0.017 | 1 to 44 | > 5 | 0.001 to 0.99 |  |  |  |  |  |
| CCN(C(=O)OC)[C@@H](C(=O)N1CCC[C@H]1c1ncc(-c2ccc(-c3ccc4cc(-c5cnc([C@@H]6CCCN6C(=O)[C@@H](NC(=O)OC)C(C)C)[nH]5)ccc4c3)cc2)[nH]1)c1ccccc1 [Example 203] | > 44 | 0.124 | 1 to 44 | > 5 | 0.001 to 0.99 |  |  |  |  |  |
| COC(=O)NC(C(=O)N1CCC[C@H]1c1ncc(-c2ccc3cc(-c4ccc(-c5cnc([C@@H]6C[C@@H](C)CN6C(=O)[C@@H](NC(=O)OC)C6CCOCC6)[nH]5)cc4)ccc3c2)[nH]1)c1ccccc1 (some centres unmarked) [Example 204] | 0.001 to 0.999 | 0.03 | 0.001 to 0.999 | 0.001 to 0.99 | 0.001 to 0.99 |  |  |  |  |  |
| COC(=O)NC(C(=O)N1CCC[C@H]1c1ncc(-c2ccc3cc(-c4ccc(-c5cnc([C@@H]6CC(C)(Br)CN6C(=O)[C@@H](NC(=O)OC)C6CCOCC6)[nH]5)cc4)ccc3c2)[nH]1)c1ccccc1 (some centres unmarked) [Example 205] | 0.001 to 0.999 | 0.016 | 0.001 to 0.999 | 1 to 4.99 | 0.001 to 0.99 |  |  |  |  |  |
| COC(=O)NC(C(=O)N1CC2(CC2)C[C@H]1c1ncc(-c2ccc3c(c2)C(F)(F)c2cc(-c4ccc(-c5cnc([C@@H]6CCCN6C(=O)[C@@H](NC(=O)OC)C6CCOCC6)[nH]5)cc4)ccc2-3)[nH]1)C(C)C (some centres unmarked) [Example 207] | 0.001 to 0.999 | 0.017 | 1 to 44 | > 5 | 0.001 to 0.99 |  |  |  |  |  |
| COC(=O)N[C@H](C(=O)N1CCC[C@H]1c1nc2ccc3cc(C#Cc4ccc(-c5cnc([C@@H]6CCCN6C(=O)[C@H](NC(=O)OC)c6ccccc6)[nH]5)cc4)ccc3c2[nH]1)C1CCOCC1 [Example 208] | 0.001 to 0.999 | 0.009 | 0.001 to 0.999 | 0.001 to 0.99 | 0.001 to 0.99 |  |  |  |  |  |
| COC(=O)NC(C(=O)N1C[C@H](C)C[C@H]1c1ncc(-c2ccc(-c3ccc4cc(-c5cnc([C@@H]6CCCN6C(=O)[C@@H](NC(=O)OC)C(C)C)[nH]5)ccc4c3)cc2)[nH]1)c1cccnc1 (some centres unmarked) [Example 215] | 0.001 to 0.999 | 0.023 | 0.001 to 0.999 | 0.001 to 0.99 | 0.001 to 0.99 |  |  |  |  |  |
| COC(=O)N[C@H](C(=O)N1CCC[C@H]1c1nc2ccc3cc(-c4ccc5cc(-c6cnc([C@@H]7COCCN7C(=O)[C@H](NC(=O)OC)c7ccccc7)[nH]6)ccc5c4)ccc3c2[nH]1)C(C)C [Example 216] | 0.001 to 0.999 | 0.006 | 0.001 to 0.999 | 0.001 to 0.99 | 0.001 to 0.99 |  |  |  |  |  |
| COC(=O)N[C@H](C(=O)N1CCC[C@H]1c1nc2ccc(-c3ccc4c(c3)C(F)(F)c3cc(-c5c[nH]c([C@@H]6CCCN6C(=O)[C@H](NC(=O)OC)c6ccccc6)n5)ccc3-4)cc2[nH]1)C(C)C [Example 217] | 0.001 to 0.999 | 0.009 | 0.001 to 0.999 | 0.001 to 0.99 | 0.001 to 0.99 |  |  |  |  |  |
| COC(=O)N[C@H](C(=O)N1CCC[C@H]1c1nc2ccc(-c3ccc4c(c3)C(F)(F)c3cc(-c5c[nH]c([C@@H]6CCCN6C(=O)[C@H](NC(=O)OC)c6ccccc6)n5)ccc3-4)cc2[nH]1)C1CCOCC1 [Example 218] | 0.001 to 0.999 | 0.01 | 0.001 to 0.999 | 0.001 to 0.99 | 0.001 to 0.99 |  |  |  |  |  |
| COC(=O)N[C@H](C(=O)N1CCC[C@H]1c1nc2ccc(-c3ccc4c(c3)C(F)(F)c3cc(-c5c[nH]c([C@@H]6CCCN6C(=O)[C@@H](NC(=O)OC)C6CCOCC6)n5)ccc3-4)cc2[nH]1)C(C)C [Example 219] | 0.001 to 0.999 | 0.008 | 0.001 to 0.999 | 1 to 4.99 | 0.001 to 0.99 |  |  |  |  |  |
| COC(=O)N[C@H](C(=O)N1CCC[C@H]1c1nc(-c2ccc3c(c2)C(F)(F)c2cc(-c4ccc5nc([C@@H]6CCCN6C(=O)[C@@H](NC(=O)OC)C6CCOCC6)[nH]c5c4)ccc2-3)c[nH]1)C(C)C [Example 220] | 0.001 to 0.999 | 0.011 | 0.001 to 0.999 | 1 to 4.99 | 0.001 to 0.99 |  |  |  |  |  |
| COC(=O)N[C@H](C(=O)N1CCC[C@H]1c1ncc(-c2ccc3cc(-c4ccc(-c5cnc([C@@H]6CCCN6C(=O)[C@H](NC(=O)c6ccccn6)c6ccccc6)[nH]5)cc4)ccc3c2)[nH]1)C(C)C [Example 221] | 0.001 to 0.999 | 0.017 | 0.001 to 0.999 | 0.001 to 0.99 | 0.001 to 0.99 |  |  |  |  |  |
| COC(=O)N[C@H](C(=O)N1CCC[C@H]1c1ncc(-c2ccc3cc(-c4ccc5c(c4)CCc4nc([C@@H]6CCCN6C(=O)[C@@H](NC(=O)OC)C6CCOCC6)[nH]c4-5)ccc3c2)[nH]1)C(C)C [Example 222] |  |  |  |  |  | 0.001 to 0.999 | 0.023 | 0.001 to 0.999 | 0.001 to 0.99 | 0.001 to 0.99 |
| COC(=O)N[C@H](C(=O)N1C[C@@H](O)C[C@H]1c1ncc(-c2ccc3cc(-c4ccc(-c5cnc([C@@H]6CCCN6C(=O)[C@H](NC(=O)OC)c6ccccc6)[nH]5)cc4)ccc3c2)[nH]1)C(C)C [Example 223] | 1 to 44 | 0.022 | 0.001 to 0.999 | 1 to 4.99 | 0.001 to 0.99 |  |  |  |  |  |
